# Experiments:
# HLA-E = target: T1, HLA-E (Homo sapiens, UniProt P13747); assay: HLA-E surface stabilization assay with RMA-S/HLA-E cells; type: cell-based; conditions: 30 μM peptide, 16 hours; for HLA-E surface expression stability (GeoMFI): anti-HLA-E antibody
# T1 construct: expressed in transfected cells; host or cells: RMA-S/HLA-E cells (antigen processing-defective lymphoma cell line)
# Experimental: HLA-E surface expression was assessed by measuring geometric mean fluorescence intensity (GeoMFI) in RMA-S cells following immunofluorescence staining with an anti-HLA-E antibody (Table 14). Increased GeoMFI was indicative of increased HLA-E surface expression stability following novel peptide exposures (FIG. 3).
# NKG2A+/NKG2C− NK cells = assay: NK cell activation markers in NKG2A+/NKG2C- NK cells incubated with peptide and K562 expressing HLA-E (inhibition); type: cell-based, human; conditions: for percentage of CCL3+ NK cells / percentage of CD107a+ NK cells / percentage of IFNG+ NK cells / percentage of TNF+ NK cells: NKG2A+/NKG2C- NK cells, K562/HLA-E
# Experimental: (§1) A human immortalized myelogenous leukemia cell line (K562), which expresses HLA-E was incubated with novel peptides (Table 1) derived from the human proteome or human cytomegalovirus proteome. […] Controls assessments were also performed using NKG2A−/NKG2C− cells (Tables 10-13). Inhibition was indicated by a decrease in percent cells positive for cell surface markers, while activation was indicated by an increase in percent cells positive for cell surface markers.
# NKG2A−/NKG2C− NK cells = assay: NK cell activation markers in control NKG2A-/NKG2C- NK cells incubated with peptide and K562 expressing HLA-E; type: cell-based, human
# Experimental: as §1
# NKG2A−/NKG2C+ NK cells = assay: NK cell activation markers in NKG2A-/NKG2C+ NK cells incubated with peptide and K562 expressing HLA-E (activation); type: cell-based, human; conditions: for percentage of CCL3+ NK cells / percentage of CD107+ NK cells / percentage of IFNG+ NK cells / percentage of TNF+ NK cells: NKG2A-/NKG2C+ NK cells, K562/HLA-E
# Experimental: as §1
# [1] = K562 expressing HLA-E, CD107a, IFNG, TNF, CCL3
# T1 sequence (P13747 22-358): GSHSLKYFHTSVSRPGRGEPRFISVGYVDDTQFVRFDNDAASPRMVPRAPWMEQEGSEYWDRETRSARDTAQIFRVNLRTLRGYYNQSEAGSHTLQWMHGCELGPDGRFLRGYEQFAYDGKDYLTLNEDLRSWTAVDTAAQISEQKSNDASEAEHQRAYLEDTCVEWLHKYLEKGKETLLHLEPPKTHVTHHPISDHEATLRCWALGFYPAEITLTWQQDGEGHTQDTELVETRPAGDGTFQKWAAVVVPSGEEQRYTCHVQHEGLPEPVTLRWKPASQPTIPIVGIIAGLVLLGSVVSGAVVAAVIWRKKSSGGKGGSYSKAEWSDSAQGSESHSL
# T1 sequence (P61769 21-119 partner): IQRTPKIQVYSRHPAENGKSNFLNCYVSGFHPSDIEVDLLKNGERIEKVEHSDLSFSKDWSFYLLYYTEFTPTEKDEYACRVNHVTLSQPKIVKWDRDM
sequence,measurement,setting,value
"FLPNRSLLF [human8, peptide SLC52A3 354-362 derived from the human proteome]",HLA-E surface expression stability (GeoMFI),HLA-E; Trial 1,1066 GeoMFI
same,HLA-E surface expression stability (GeoMFI),HLA-E; Trial 2,813 GeoMFI
same,HLA-E surface expression stability (GeoMFI),HLA-E; Trial 3,1049 GeoMFI
same,HLA-E surface expression stability (GeoMFI),HLA-E; Trial 4,1654 GeoMFI
same,"HLA-E surface expression stabilization strength, approximate GeoMFI",HLA-E; approximate value,approximately 1×10^3 GeoMFI
same,effect on NKG2A+/NKG2C− NK cell inhibition (in words),NKG2A+/NKG2C− NK cells; [1],mild inhibitory effects
same,percentage of CCL3+ NK cells,NKG2A+/NKG2C− NK cells; Trial 1,39.5%
same,percentage of CD107a+ NK cells,NKG2A+/NKG2C− NK cells; Trial 1,19.1%
same,percentage of IFNG+ NK cells,NKG2A+/NKG2C− NK cells; Trial 1,5.56%
same,percentage of TNF+ NK cells,NKG2A+/NKG2C− NK cells; Trial 1,1.84%
same,percentage of CCL3+ NK cells,NKG2A+/NKG2C− NK cells; Trial 2,56%
same,percentage of CD107a+ NK cells,NKG2A+/NKG2C− NK cells; Trial 2,26.4%
same,percentage of IFNG+ NK cells,NKG2A+/NKG2C− NK cells; Trial 2,10.5%
same,percentage of TNF+ NK cells,NKG2A+/NKG2C− NK cells; Trial 2,4.8%
same,percentage of CCL3+ NK cells,NKG2A+/NKG2C− NK cells; Trial 3,38.2%
same,percentage of CD107a+ NK cells,NKG2A+/NKG2C− NK cells; Trial 3,27.5%
same,percentage of IFNG+ NK cells,NKG2A+/NKG2C− NK cells; Trial 3,14.7%
same,percentage of TNF+ NK cells,NKG2A+/NKG2C− NK cells; Trial 3,6.96%
same,percentage of CCL3+ NK cells,NKG2A+/NKG2C− NK cells; Trial 4,32.8%
same,percentage of CD107a+ NK cells,NKG2A+/NKG2C− NK cells; Trial 4,28.2%
same,percentage of IFNG+ NK cells,NKG2A+/NKG2C− NK cells; Trial 4,12.7%
same,percentage of TNF+ NK cells,NKG2A+/NKG2C− NK cells; Trial 4,7.59%
same,percentage of CCL3+ NK cells,NKG2A+/NKG2C− NK cells; Trial 5,33.3%
same,percentage of CD107a+ NK cells,NKG2A+/NKG2C− NK cells; Trial 5,17.7%
same,percentage of IFNG+ NK cells,NKG2A+/NKG2C− NK cells; Trial 5,7.1%
same,percentage of TNF+ NK cells,NKG2A+/NKG2C− NK cells; Trial 5,3.6%
same,percentage of CCL3+ NK cells,NKG2A+/NKG2C− NK cells; Trial 6,27.1%
same,percentage of CD107a+ NK cells,NKG2A+/NKG2C− NK cells; Trial 6,20%
same,percentage of IFNG+ NK cells,NKG2A+/NKG2C− NK cells; Trial 6,6.74%
same,percentage of TNF+ NK cells,NKG2A+/NKG2C− NK cells; Trial 6,4.07%
same,percentage CCL3+ NK cells,NKG2A−/NKG2C− NK cells; Trial 1,33.5%
same,percentage CD107+ NK cells,NKG2A−/NKG2C− NK cells; Trial 1,27.7%
same,percentage TNF+ NK cells,NKG2A−/NKG2C− NK cells; Trial 1,4.82%
same,percentage of IFNG+ NK cells,NKG2A−/NKG2C− NK cells; Trial 1,14.7%
same,percentage CCL3+ NK cells,NKG2A−/NKG2C− NK cells; Trial 2,60.3%
same,percentage CD107+ NK cells,NKG2A−/NKG2C− NK cells; Trial 2,36.2%
same,percentage TNF+ NK cells,NKG2A−/NKG2C− NK cells; Trial 2,10.5%
same,percentage of IFNG+ NK cells,NKG2A−/NKG2C− NK cells; Trial 2,28.8%
same,percentage CCL3+ NK cells,NKG2A−/NKG2C− NK cells; Trial 3,52.4%
same,percentage CD107+ NK cells,NKG2A−/NKG2C− NK cells; Trial 3,47.3%
same,percentage TNF+ NK cells,NKG2A−/NKG2C− NK cells; Trial 3,16.5%
same,percentage of IFNG+ NK cells,NKG2A−/NKG2C− NK cells; Trial 3,38%
same,percentage CCL3+ NK cells,NKG2A−/NKG2C− NK cells; Trial 4,32%
same,percentage CD107+ NK cells,NKG2A−/NKG2C− NK cells; Trial 4,28.6%
same,percentage TNF+ NK cells,NKG2A−/NKG2C− NK cells; Trial 4,9.61%
same,percentage of IFNG+ NK cells,NKG2A−/NKG2C− NK cells; Trial 4,18.6%
same,percentage CCL3+ NK cells,NKG2A−/NKG2C− NK cells; Trial 5,29.2%
same,percentage CD107+ NK cells,NKG2A−/NKG2C− NK cells; Trial 5,20.2%
same,percentage TNF+ NK cells,NKG2A−/NKG2C− NK cells; Trial 5,6.07%
same,percentage of IFNG+ NK cells,NKG2A−/NKG2C− NK cells; Trial 5,14.2%
same,percentage CCL3+ NK cells,NKG2A−/NKG2C− NK cells; Trial 6,24.8%
same,percentage CD107+ NK cells,NKG2A−/NKG2C− NK cells; Trial 6,19.3%
same,percentage TNF+ NK cells,NKG2A−/NKG2C− NK cells; Trial 6,3.78%
same,percentage of IFNG+ NK cells,NKG2A−/NKG2C− NK cells; Trial 6,10.9%
same,effect on NKG2A−/NKG2C+ NK cell activation (in words),NKG2A−/NKG2C+ NK cells; [1],strong activating effects
same,percentage of CCL3+ NK cells,NKG2A−/NKG2C+ NK cells; Trial 1,75.5%
same,percentage of CD107+ NK cells,NKG2A−/NKG2C+ NK cells; Trial 1,73.7%
same,percentage of IFNG+ NK cells,NKG2A−/NKG2C+ NK cells; Trial 1,58.6%
same,percentage of TNF+ NK cells,NKG2A−/NKG2C+ NK cells; Trial 1,45.1%
same,percentage of CCL3+ NK cells,NKG2A−/NKG2C+ NK cells; Trial 2,89%
same,percentage of CD107+ NK cells,NKG2A−/NKG2C+ NK cells; Trial 2,82.1%
same,percentage of IFNG+ NK cells,NKG2A−/NKG2C+ NK cells; Trial 2,74.8%
same,percentage of TNF+ NK cells,NKG2A−/NKG2C+ NK cells; Trial 2,64%
same,percentage of CCL3+ NK cells,NKG2A−/NKG2C+ NK cells; Trial 3,84.1%
same,percentage of CD107+ NK cells,NKG2A−/NKG2C+ NK cells; Trial 3,84.3%
same,percentage of IFNG+ NK cells,NKG2A−/NKG2C+ NK cells; Trial 3,74.5%
same,percentage of TNF+ NK cells,NKG2A−/NKG2C+ NK cells; Trial 3,63.7%
same,percentage of CCL3+ NK cells,NKG2A−/NKG2C+ NK cells; Trial 4,65.3%
same,percentage of CD107+ NK cells,NKG2A−/NKG2C+ NK cells; Trial 4,64.8%
same,percentage of IFNG+ NK cells,NKG2A−/NKG2C+ NK cells; Trial 4,54%
same,percentage of TNF+ NK cells,NKG2A−/NKG2C+ NK cells; Trial 4,43.7%
same,percentage of CCL3+ NK cells,NKG2A−/NKG2C+ NK cells; Trial 5,74.6%
same,percentage of CD107+ NK cells,NKG2A−/NKG2C+ NK cells; Trial 5,70.7%
same,percentage of IFNG+ NK cells,NKG2A−/NKG2C+ NK cells; Trial 5,62.3%
same,percentage of TNF+ NK cells,NKG2A−/NKG2C+ NK cells; Trial 5,57.1%
same,percentage of CCL3+ NK cells,NKG2A−/NKG2C+ NK cells; Trial 6,57%
same,percentage of CD107+ NK cells,NKG2A−/NKG2C+ NK cells; Trial 6,53.1%
same,percentage of IFNG+ NK cells,NKG2A−/NKG2C+ NK cells; Trial 6,43.8%
same,percentage of TNF+ NK cells,NKG2A−/NKG2C+ NK cells; Trial 6,31.7%

# Reference: US20240092835A1, “NOVEL PEPTIDES CAPABLE OF ALTERING NK CELL ACTIVITY” (Massachusetts Institute of Technology, priority 2022, published 2024)
